Laboratory results from ChEMBL document CHEMBL3046532, “QSAR analysis on PfPK7 inhibitors using HQSAR, CoMFA, and CoMSIA” (Med Chem Res, 2012).

Target: T1, Putative uncharacterized protein pk7 (Plasmodium falciparum, UniProt O96214)
T1 sequence (O96214 whole entry): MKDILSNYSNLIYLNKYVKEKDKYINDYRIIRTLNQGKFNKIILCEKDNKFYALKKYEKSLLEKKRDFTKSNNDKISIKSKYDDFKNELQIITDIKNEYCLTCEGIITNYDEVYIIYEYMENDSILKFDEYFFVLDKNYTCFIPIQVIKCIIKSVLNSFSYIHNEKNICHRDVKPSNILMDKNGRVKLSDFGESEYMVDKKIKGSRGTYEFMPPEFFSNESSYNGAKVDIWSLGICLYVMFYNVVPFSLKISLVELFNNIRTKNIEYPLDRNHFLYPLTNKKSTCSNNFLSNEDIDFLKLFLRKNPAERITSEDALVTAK
Test: Inhibition of Plasmodium falciparum protein kinase 7

Work on CN(Cc1ccc(F)nc1)c1ccc2ncc(-c3ccc(C#N)cc3)n2n1 yielded an IC50 of 1.07 µM.

CN(Cc1ccc(F)nc1)c1ccc2ncc(-c3ccc(C(N)=O)cc3)n2n1 gave an IC50 of 1.1 µM.

CN(Cc1ccc(F)nc1)c1ccc2ncc(-c3ccc(CO)cc3)n2n1 showed an IC50 of 21 µM.

For CN(Cc1ccc(F)nc1)c1ccc2ncc(-c3ccc(N)cc3)n2n1, the IC50 was 42 µM.

With CN(Cc1ccc(F)nc1)c1ccc2ncc(-c3ccc(CNCO)cc3)n2n1 the IC50 was 34 µM.

CN(Cc1ccc(F)nc1)c1ccc2ncc(-c3ccc(Cn4ccnc4)cc3)n2n1 was tested, and the IC50 was 56 µM.

With CN(Cc1ccc(F)nc1)c1ccc2ncc(-c3ccc(CN4CCC(O)CC4)cc3)n2n1 the IC50 was 103 µM.

Work on N#Cc1ccc(-c2cnc3ccc(N[C@H]4CCCNC4)nn23)cc1 yielded an IC50 of 2.1 µM.
